Laboratory results taken from US20040019082A1, “Reversible infertility in male mice following oral administration of alkylated imino sugars: a non-hormonal approach to male contraception” (United Therapeutics Corporation, priority 2002, published 2004).
Where two headings read alike, the source gives them in different places.

Tests used:
[1] = tested on: female C57BL/6 mice; assay: Mating assay, fertility of treated female mice; format: in vivo, mouse; conditions: 1200 mg/kg/day for five weeks, four-day mating with untreated males, n=5
Method: Mating assays—To assess the fertility of male mice that were fed on a diet containing an iminosugar, a mating assay was used: typically six week old male C57BL/6 mice in groups of three were administered diet containing compound for five weeks (unless otherwise specified), after which each of them was caged with four untreated female C57BL/6 mice, and provided with standard pelleted chow. Females were at least 11 weeks old, and age-matched in each experiment. The male was removed from the females after 7 or 9 days, depending on the experiment; the females were monitored for vaginal mucous plugs, pregnancies, and, if any, litter sizes. To study any effect on female fertility six-week-old female C57BL/6 mice were treated with NB-DNJ for five weeks, after which each of them was caged with a non-treated age-matched male for four days.
Following a four-day mating period with untreated males, 100% of treated (n=5) as well as of non-treated females (n=4) became pregnant; these mice had 6.2±2.7 and 7.8±1.0 pups per litter, respectively.

[2] = tested on: female mice of strain 129; assay: Fertility of treated female mice of strain 129; format: in vivo, mouse; conditions: 2400 mg/kg day for 12 weeks, 15 week-old females, caged with untreated males
Method: NB-DNJ was administered at 2400 mg/kg day for 12 weeks to 15 week-old female mice of strain 129. After this, the drug was withdrawn and the females were caged with untreated males of strain 129. […] The mice in this experiment were heterozygous for a disruption in the gene encoding ceramide galactosyltransferase. These mice are phenotypically indistinguishable from wild-type 129 mice and reproduce normally (Coetzee et al., (1996), Cell, 86:209-219).

[3] = Body, gonad and organ weights of treated mice; format: in vivo, mouse
[4] = tested on: seminiferous tubules; assay: Testis histology; format: in vivo, mouse; conditions: 50 mg/kg/day (FIG. 4B)
Text: Histology and Scanning electronmicroscopy—Testes were obtained from mice perfused with 4% paraformaldehyde, 1% gluteraldehyde, kept in the fixative for two days, and transferred to 70% ethanol. Tissues were post-fixed with 2% osmium tetroxide, embedded in araldite, sectioned at 1 μm, and stained with Toluidine Blue. Sections were examined with a Zeiss Axioskop II, and images were acquired with an Axiocam camera, operated by Axiovision 3.0 software.

[5] = tested on: epididymal spermatozoa; assay: Fluorescence microscopy of epididymal spermatozoa (nuclear morphology, acrosomal antigens); format: in vivo, mouse
Method: Fluorescence microscopy—For immunofluorescence, freshly exised vasa deferentia were stripped and caudae epididymides were dissociated with forceps in M2 medium, and spermatozoa were allowed to disperse for 15 min. The resultant suspensions were used to prepare smears on glass slides. After drying in air for 1 hr, cells were fixed in methanol for 2 min., dried and stored at room temperature or 4° C. for one to five days. Before immunostaining smears were immersed in methanol for 5 min., dried, and wetted in PBS containing 0.5% BSA and 0.15 M glycine (PBG). Slides were stained with monoclonal antibodies, either Mab18.6 (1:20 in PBG (Moore, H. D., Smith, C. A., Hartman, T. D. & Bye, A. P. (1987) Gamete Res 17, 245-9)), anti-sp56 (1:67 in PBG, clone 7C5, QED Bioscience (Cheng, A., Le, T., Palacios, M., Bookbinder, L. H., Wassarman, P. M., Suzuki, F. & Bleil, J. D. (1994) J Cell Biol 125, 867-78), and goat anti-mouse immunoglobulins γ and light chains-specific fluorescein isothiocyanate-conjugate (Ortho) according to van Dongen et al. (van Dongen, J. M., Willemsen, R., Ginns, E. I., Sips, H. j., Tager, J. M., Barranger, J. A. & Reuser, A. J. (1985) Eur J Cell Biol 39, 179-189.) Following immunostaining, nuclei were stained for 2 min in 5 μg/ml Hoechst 33342 (Molecular Probes); slides were rinsed in distilled water, and mounted with Vectashield (Vector). Fluorescent probes were examined using an Olympus BX50 microscope equipped with a Princeton Instruments CCD camera. Images were aquired, false-coloured, and overlaid with Metamorph v3.5 software, and further processed with Adobe Photoshop.

[6] = tested on: ganglioside GM1 on the surface of mouse splenocytes; conditions: cited from earlier work
[7] = molecular target: T1, alpha-glucosidase 1 (Homo sapiens, UniProt Q13724); conditions: involved in N-glycan synthesis; cited from earlier work
T1 sequence (Q13724 1-837): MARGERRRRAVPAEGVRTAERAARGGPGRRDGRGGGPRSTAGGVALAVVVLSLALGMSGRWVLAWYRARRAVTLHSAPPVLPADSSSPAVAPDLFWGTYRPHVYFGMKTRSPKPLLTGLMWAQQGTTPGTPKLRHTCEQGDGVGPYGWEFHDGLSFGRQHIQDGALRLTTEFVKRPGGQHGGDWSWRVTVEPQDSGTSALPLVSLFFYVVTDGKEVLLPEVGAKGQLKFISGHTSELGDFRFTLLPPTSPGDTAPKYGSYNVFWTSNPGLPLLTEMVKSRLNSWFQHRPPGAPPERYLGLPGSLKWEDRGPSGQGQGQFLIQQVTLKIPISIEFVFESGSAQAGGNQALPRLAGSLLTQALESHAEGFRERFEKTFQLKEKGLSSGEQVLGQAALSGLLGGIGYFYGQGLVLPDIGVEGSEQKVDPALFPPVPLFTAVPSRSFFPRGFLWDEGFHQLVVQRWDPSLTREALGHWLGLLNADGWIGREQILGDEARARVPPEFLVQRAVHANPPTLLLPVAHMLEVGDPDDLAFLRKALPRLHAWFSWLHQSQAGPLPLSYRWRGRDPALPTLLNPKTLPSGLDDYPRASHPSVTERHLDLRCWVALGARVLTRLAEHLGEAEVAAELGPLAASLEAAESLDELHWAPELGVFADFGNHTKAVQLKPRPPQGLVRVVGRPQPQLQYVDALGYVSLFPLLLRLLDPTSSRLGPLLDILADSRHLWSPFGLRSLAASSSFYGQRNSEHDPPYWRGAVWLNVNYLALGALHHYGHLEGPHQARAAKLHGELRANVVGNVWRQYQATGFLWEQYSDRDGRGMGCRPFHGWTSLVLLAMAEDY

[8] = highest dose (2400 mg/kg/day), n=10

Structure (SMILES): CCCCN1C[C@H](O)[C@@H](O)[C@H](O)[C@H]1CO [NB-DNJ, N-butyldeoxynojirimycin]
- females that became pregnant [1]: 100%
- pups per litter [1]: 6.2±2.7
- average litter size [2]: 6 pups
- pregnancy after drug withdrawal [2]: All females quickly became pregnant
- weights of testes and epididymal compartments ([3]; 1200 and 2400 mg/kg/day): decreased proportionally to body weight
- combined cauda epididymis/vas deferens weight [3, 8]: 43±7 % of control
- whole body weight [3, 8]: 60±5 % of control
- body or gonad weights ([3]; low dose, 15-150 mg/kg/day): did not affect
- morphology of nuclei of mature spermatids [4]: aberrant, heterogeneous morphology
- vacuolization in seminiferous tubules versus controls [4]: more extensive vacuolization
- fraction of spermatozoa stained with Mab18.6 or anti-sp56 (acrosomal antigens) ([5]; 15 mg/kg/day): below 10%
- nuclear shape of cauda epididymal sperm cells ([5]; 150 mg/kg/day (FIGS. 4D-4F)): various abnormally shaped nuclei
- frequency of antibody staining (acrosomal antigens) ([5]; 1200 mg/kg/day compared with 15-150 mg/kg/day): more frequent
- frequency of normal nuclear morphology ([5]; 1200 mg/kg/day compared with 50-150 mg/kg/day, p<0.01): significantly more often
- incidence of (near)-normal acrosomal staining among Mab18.6-positive cells ([5]; 15 to 1200 mg/kg/day, average, n=3): 31±10%
- percentage of caudal spermatozoa with (near)-normal nuclei ([5]; minimal dose to achieve complete infertility): below 6%
- reduction of ganglioside GM1 levels ([6]; 600 mg/kg per day): 10%
- reduction of ganglioside GM1 levels ([6]; 2400 mg/kg per day): 70%
- inhibition of alpha-glucosidase 1 [7]: potent inhibitor
